The Ki is a dissociation constant, usually derived from enzyme kinetics or from competition with a known ligand.

Structures are written as SMILES.

One experiment addresses T1, CRF1 receptors (Homo sapiens, UniProt P34998).
T1 construct: endogenous in cells; host or cells: IMR-32 cells, transformed with 2.5 µM 5'-bromo-2'-deoxyuridine for 10 days; membrane preparation
T1 sequence (P34998 24-415): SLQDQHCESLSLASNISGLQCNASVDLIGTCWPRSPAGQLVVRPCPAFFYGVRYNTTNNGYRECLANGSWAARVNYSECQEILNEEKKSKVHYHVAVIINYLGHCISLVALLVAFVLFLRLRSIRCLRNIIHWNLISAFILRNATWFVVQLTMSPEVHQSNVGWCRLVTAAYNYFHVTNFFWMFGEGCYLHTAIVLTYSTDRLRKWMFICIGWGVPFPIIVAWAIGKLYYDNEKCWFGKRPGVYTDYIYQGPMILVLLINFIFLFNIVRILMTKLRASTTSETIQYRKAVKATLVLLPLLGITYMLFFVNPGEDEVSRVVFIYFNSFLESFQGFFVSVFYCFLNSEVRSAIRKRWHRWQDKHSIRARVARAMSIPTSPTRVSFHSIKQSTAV
Briefly: CRF1 receptor radioligand binding assay ([125I]-oCRF competition, IMR-32 cell membranes).
Conditions: not given
The gist of the method:
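Buffer: Tris pH 7.2 with MgCl2, BSA, Triton X-100, aprotinin, leupeptin; reaction stopped with ice-cold wash and filtered. Nonspecific binding set with 10 μM oCRF.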
On to `Cc1cc(C)c(-n2c3ccccc3n3c(CN(CC4CC4)CC(F)(F)C(F)(F)F)c(C(F)(F)F)nc23)c(C)c1` [Example 155, Cyclopropylmethyl-(2,2,3,3,3-pentafluoro-propyl)-[2-trifluoromethyl-8-(2,4,6-trimethyl-phenyl)-8H-1,3a,8-triaza-cyclopenta[α]inden-3-ylmethyl]-amine], for which the Ki is less than 100 nM.

Still in this experiment, the particulars now being: IMR-32 cell membranes, [125I]-oCRF 100 pM; read-out: Ki (CRF-1R).
On to `CCCN(Cc1c(C(F)(F)F)nc2n(-c3c(C)cc(C)cc3C)c3ccccc3n12)CC1CCC1` [Example 153, Cyclobutylmethyl-propyl-[2-trifluoromethyl-8-(2,4,6-trimethyl-phenyl)-8H-1,3a,8-triaza-cyclopenta[α]inden-3-ylmethyl]-amine], for which the Ki is less than 100 nM.
For the compound `CCN(Cc1c(C(F)(F)F)nc2n(-c3c(C)cc(C)cc3C)c3ccccc3n12)CC1CC1` [Example 154, Cyclopropylmethyl-ethyl-[2-trifluoromethyl-8-(2,4,6-trimethyl-phenyl)-8H-1,3a,8-triaza-cyclopenta[α]inden-3-ylmethyl]-amine], the Ki was less than 100 nM.
Take `Cc1cc(C)c(-n2c3ccccc3n3c(CN(CC4CCC4)CC(F)(F)F)c(C(F)(F)F)nc23)c(C)c1` [Example 156, Cyclobutylmethyl-(2,2,2-trifluoro-ethyl)-[2-trifluoromethyl-8-(2,4,6-trimethyl-phenyl)-8H-1,3a,8-triaza-cyclopenta[α]inden-3-ylmethyl]-amine]: the Ki is less than 100 nM.
Regarding `CCCN(CCC(F)(F)F)Cc1c(C(F)(F)F)nc2n(-c3c(C)cc(C)cc3C)c3ccccc3n12` [Example 157, Propyl-[2-trifluoromethyl-8-(2,4,6-trimethyl-phenyl)-8H-1,3a,8-triaza-cyclopenta[α]inden-3-ylmethyl]-(3,3,3-trifluoro-propyl)-amine], the Ki is less than 100 nM.
`CCCN(Cc1c(C(F)(F)F)nc2n(-c3c(C)cc(C)cc3C)c3ccccc3n12)CC(F)(F)C(F)(F)F` [Example 158, (2,2,3,3,3-Pentafluoro-propyl)-propyl-[2-trifluoromethyl-8-(2,4,6-trimethyl-phenyl)-8H-1,3a,8-triaza-cyclopenta[α]inden-3-ylmethyl]-amine]: the Ki was less than 100 nM.
Still for that read-out and setting: the value for `CCCN(Cc1c(C(F)(F)F)nc2n(-c3c(C)cc(C)cc3C)c3ccccc3n12)CC(F)(F)F` [Example 159, Propyl-(2,2,2-trifluoro-ethyl)-[2-trifluoromethyl-8-(2,4,6-trimethyl-phenyl)-8H-1,3a,8-triaza-cyclopenta[α]inden-3-ylmethyl]-amine] was less than 100 nM; that for `C=CCN(CC=C)Cc1c(C(F)(F)F)nc2n(-c3c(C)cc(C)cc3C)c3ccccc3n12` [Example 160, Diallyl-[2-trifluoromethyl-8-(2,4,6-trimethyl-phenyl)-8H-1,3a,8-triaza-cyclopenta[α]inden-3-ylmethyl]-amine] was less than 1000 nM.
For `CCCN(CCc1ccccc1)Cc1c(C(F)(F)F)nc2n(-c3c(C)cc(C)cc3C)c3ccccc3n12` [Example 161, Phenethyl-propyl-[2-trifluoromethyl-8-(2,4,6-trimethyl-phenyl)-8H-1,3a,8-triaza-cyclopenta[α]inden-3-ylmethyl]-amine], the Ki was less than 1000 nM.
Turning to `CCN(CCc1ccccc1)Cc1c(C(F)(F)F)nc2n(-c3c(C)cc(C)cc3C)c3ccccc3n12` [Example 163, Ethyl-phenethyl-[2-trifluoromethyl-8-(2,4,6-trimethyl-phenyl)-8H-1,3a,8-triaza-cyclopenta[α]inden-3-ylmethyl]-amine], the Ki is less than 1000 nM.
Consider `CCCN(CCC1CC1)Cc1c(C(F)(F)F)nc2n(-c3c(C)cc(C)cc3C)c3ccccc3n12` [Example 164, (2-Cyclopropyl-ethyl)-propyl-[2-trifluoromethyl-8-(2,4,6-trimethyl-phenyl)-8H-1,3a,8-triaza-cyclopenta[α]inden-3-ylmethyl]-amine], for which the Ki is less than 1000 nM.
For the compound `Cc1cc(C)c(-n2c3ccccc3n3c(CN(CCC4CC4)CCC(F)(F)F)c(C(F)(F)F)nc23)c(C)c1` [Example 166, (2-Cyclopropyl-ethyl)-[2-trifluoromethyl-8-(2,4,6-trimethyl-phenyl)-8H-1,3a,8-triaza-cyclopenta[α]inden-3-ylmethyl]-(3,3,3-trifluoro-propyl)-amine], the Ki was less than 1000 nM.
Take `Cc1cc(C)c(-n2c3ccccc3n3c(CN(C)Cc4ccccc4)c(C(F)(F)F)nc23)c(C)c1` [Example 167, Benzyl-methyl-[2-trifluoromethyl-8-(2,4,6-trimethyl-phenyl)-8H-1,3a,8-triaza-cyclopenta[α]inden-3-ylmethyl]-amine]: the Ki was less than 1000 nM.
Consider `Cc1cc(C)c(-n2c3ccccc3n3c(CN(CCC4CC4)CC(F)(F)F)c(C(F)(F)F)nc23)c(C)c1` [Example 169, (2-Cyclopropyl-ethyl)-(2,2,2-trifluoro-ethyl)-[2-trifluoromethyl-8-(2,4,6-trimethyl-phenyl)-8H-1,3a,8-triaza-cyclopenta[α]inden-3-ylmethyl]-amine], for which the Ki is less than 1000 nM.
Turning to `CCCCN(CC)Cc1c(C(F)(F)F)nc2n(-c3c(C)cc(C)cc3C)c3ccccc3n12` [Example 170, Butyl-ethyl-[2-trifluoromethyl-8-(2,4,6-trimethyl-phenyl)-8H-1,3a,8-triaza-cyclopenta[α]inden-3-ylmethyl]-amine], the Ki is less than 1000 nM.
Still for that read-out and setting: the figure for `Cc1cc(C)c(-n2c3ccccc3n3c(CN(CCc4ccccc4)CC(F)(F)F)c(C(F)(F)F)nc23)c(C)c1` [Example 171, Phenethyl-(2,2,2-trifluoro-ethyl)-[2-trifluoromethyl-8-(2,4,6-trimethyl-phenyl)-8H-1,3a,8-triaza-cyclopenta[α]inden-3-ylmethyl]-amine] is less than 1000 nM; for `CCN(CCC1CC1)Cc1c(C(F)(F)F)nc2n(-c3c(C)cc(C)cc3C)c3ccccc3n12` [Example 172, (2-Cyclopropyl-ethyl)-ethyl-[2-trifluoromethyl-8-(2,4,6-trimethyl-phenyl)-8H-1,3a,8-triaza-cyclopenta[α]inden-3-ylmethyl]-amine] it is less than 10000 nM; for `CCN(Cc1ccccc1)Cc1c(C(F)(F)F)nc2n(-c3c(C)cc(C)cc3C)c3ccccc3n12` [Example 173, Benzyl-ethyl-[2-trifluoromethyl-8-(2,4,6-trimethyl-phenyl)-8H-1,3a,8-triaza-cyclopenta[α]inden-3-ylmethyl]-amine] it is less than 10000 nM.
In the case of `CCN(CCc1ccccc1)Cc1c(C(F)(F)F)nc2n(-c3c(C)cc(C)cc3C)c3ccccc3n12` [Example 174, Ethyl-phenethyl-[2-trifluoromethyl-8-(2,4,6-trimethyl-phenyl)-8H-1,3a,8-triaza-cyclopenta[α]inden-3-ylmethyl]-amine], the Ki is less than 10000 nM.
As for `CCCN(Cc1ccccc1)Cc1c(C(F)(F)F)nc2n(-c3c(C)cc(C)cc3C)c3ccccc3n12` [Example 175, Benzyl-propyl-[2-trifluoromethyl-8-(2,4,6-trimethyl-phenyl)-8H-1,3a,8-triaza-cyclopenta[α]inden-3-ylmethyl]-amine], the Ki was less than 10000 nM.
As for `CCCCN(Cc1ccccc1)Cc1c(C(F)(F)F)nc2n(-c3c(C)cc(C)cc3C)c3ccccc3n12` [Example 176, Benzyl-butyl-[2-trifluoromethyl-8-(2,4,6-trimethyl-phenyl)-8H-1,3a,8-triaza-cyclopenta[α]inden-3-ylmethyl]-amine], the Ki was less than 10000 nM.
For the compound `FC(F)(F)c1nc2n(-c3ccc(Cl)cc3Cl)c3ccccc3n2c1CN(CC1CC1)CC1CC1` [Example 177, Bis-cyclopropylmethyl-[8-(2,4-dichloro-phenyl)-2-trifluoromethyl-8H-1,3a,8-triaza-cyclopenta[α]inden-3-ylmethyl]-amine], the Ki is less than 1000 nM.
As to `CCCN(Cc1c(C(F)(F)F)nc2n(-c3ccc(Cl)cc3Cl)c3ccccc3n12)CC1CC1` [Example 178, Cyclopropylmethyl-[8-(2,4-dichloro-phenyl)-2-trifluoromethyl-8H-1,3a,8-triaza-cyclopenta[α]inden-3-ylmethyl]-propyl-amine], the Ki is less than 1000 nM.
Take `FC(F)(F)CN(Cc1c(C(F)(F)F)nc2n(-c3ccc(Cl)cc3Cl)c3ccccc3n12)CC1CC1` [Example 179, Cyclopropylmethyl-[8-(2,4-dichloro-phenyl)-2-trifluoromethyl-8H-1,3a,8-triaza-cyclopenta[α]inden-3-ylmethyl]-(2,2,2-trifluoro-ethyl)-amine]: the Ki was less than 1000 nM.
Still for that read-out and setting: the value for `FC(F)(F)CCN(Cc1c(C(F)(F)F)nc2n(-c3ccc(Cl)cc3Cl)c3ccccc3n12)CC1CC1` [Example 180, Cyclopropylmethyl-[8-(2,4-dichloro-phenyl)-2-trifluoromethyl-8H-1,3a,8-triaza-cyclopenta[α]inden-3-ylmethyl]-(3,3,3-trifluoro-propyl)-amine] was less than 10000 nM; that for `CCN(Cc1c(C(F)(F)F)nc2n(-c3ccc(Cl)cc3Cl)c3ccccc3n12)CC1CC1` [Example 181, Cyclopropylmethyl-[8-(2,4-dichloro-phenyl)-2-trifluoromethyl-8H-1,3a,8-triaza-cyclopenta[α]inden-3-ylmethyl]-ethyl-amine] was less than 10000 nM.
For `CCCN(CCc1ccccc1)Cc1c(C(F)(F)F)nc2n(-c3ccc(Cl)cc3Cl)c3ccccc3n12` [Example 182, [8-(2,4-Dichloro-phenyl)-2-trifluoromethyl-8H-1,3a,8-triaza-cyclopenta[α]inden-3-ylmethyl]-phenethyl-propyl-amine], the Ki is less than 10000 nM.

Source of the values: patent US7125990B2, “Imidazolyl derivatives as corticotropin releasing factor inhibitors” (Bristol-Myers Squibb COmpany, priority 2001, dated 2006).
